Results: PubChem BioAssay (NCI)
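The concentration for 50% growth inhibition is given as GI50. TGI is the concentration that stops growth completely.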

Legend:
Assay in all cases: NCI-60 cell line screen, 384-well format
[1] = tested on: 786-0 renal
[2] = tested on: A498 renal
[3] = tested on: A549 NSCLC
[4] = tested on: BT-549 breast
[5] = tested on: CCRF-CEM leukemia
[6] = tested on: COLO 205 colon
[7] = tested on: DU-145 prostate
[8] = tested on: HCC-2998 colon
[9] = tested on: HCT-116 colon
[10] = tested on: HCT-15 colon
[11] = tested on: HL-60(TB) leukemia
[12] = tested on: HOP-62 NSCLC
[13] = tested on: HOP-92 NSCLC
[14] = tested on: HS 578T breast
[15] = tested on: HT29 colon
[16] = tested on: IGROV1 ovarian
[17] = tested on: K-562 leukemia
[18] = tested on: KM12 colon
[19] = tested on: LOX IMVI melanoma
[20] = tested on: M14 melanoma
[21] = tested on: MALME-3M melanoma
[22] = tested on: MDA-MB-468 breast
[23] = tested on: MOLT-4 leukemia
[24] = tested on: NCI-H226 lung
[25] = tested on: NCI-H23 lung
[26] = tested on: NCI-H322M lung
[27] = tested on: NCI-H460 NSCLC
[28] = tested on: NCI-H522 lung
[29] = tested on: NCI/ADR-RES ovarian
[30] = tested on: OVCAR-4 ovarian
[31] = tested on: RPMI-8226 leukemia
[32] = tested on: RXF 393 renal
[33] = tested on: SF-268 CNS
[34] = tested on: SF-295 CNS
[35] = tested on: SK-MEL-2 melanoma
[36] = tested on: SK-MEL-28 melanoma
[37] = tested on: SK-OV-3 ovarian
[38] = tested on: SN12C renal
[39] = tested on: SNB-19 CNS
[40] = tested on: SNB-75 CNS
[41] = tested on: SR leukemia
[42] = tested on: SW-620 colon
[43] = tested on: T-47D breast
[44] = tested on: TK-10 renal
[45] = tested on: U251 glioblastoma
[46] = tested on: UACC-62 melanoma
[47] = tested on: UO-31 renal

What does the source list for `Cc1cc(Nc2cc(N)ncn2)c(=O)n2c1C(=O)NC21CCCCC1`?
GI50 [1]: > 100 µM; TGI [1]: > 100 µM; GI50 [2]: > 100 µM; TGI [2]: > 100 µM; GI50 [3]: > 100 µM; TGI [3]: > 100 µM; GI50 [4]: > 76.9 µM; TGI [4]: > 100 µM; GI50 [5]: > 100 µM; TGI [5]: > 100 µM; GI50 [6]: > 100 µM; TGI [6]: > 100 µM; GI50 [7]: > 100 µM; TGI [7]: > 100 µM; GI50 [8]: > 100 µM; TGI [8]: > 100 µM; GI50 [9]: > 100 µM; TGI [9]: > 100 µM; GI50 [10]: > 100 µM; TGI [10]: > 100 µM; GI50 [11]: > 100 µM; TGI [11]: > 100 µM; GI50 [12]: > 100 µM; TGI [12]: > 100 µM; GI50 [13]: > 23.2 µM; TGI [13]: > 100 µM; GI50 [14]: > 100 µM; TGI [14]: > 100 µM; GI50 [15]: > 100 µM; TGI [15]: > 100 µM; GI50 [16]: > 100 µM; TGI [16]: > 100 µM; GI50 [17]: > 100 µM; TGI [17]: > 100 µM; GI50 [18]: > 100 µM; TGI [18]: > 100 µM; GI50 [19]: > 100 µM; TGI [19]: > 100 µM; GI50 [20]: > 100 µM; TGI [20]: > 100 µM; GI50 [21]: > 100 µM; TGI [21]: > 100 µM; GI50 [22]: > 100 µM; TGI [22]: > 100 µM; GI50 [23]: > 100 µM; TGI [23]: > 100 µM; GI50 [24]: > 100 µM; TGI [24]: > 100 µM; GI50 [25]: > 100 µM; TGI [25]: > 100 µM; GI50 [26]: > 100 µM; TGI [26]: > 100 µM; GI50 [27]: > 100 µM; TGI [27]: > 100 µM; GI50 [28]: > 100 µM; TGI [28]: > 100 µM; GI50 [29]: > 100 µM; TGI [29]: > 100 µM; GI50 [30]: > 100 µM; TGI [30]: > 100 µM; GI50 [31]: > 62.6 µM; TGI [31]: > 100 µM; GI50 [32]: > 100 µM; TGI [32]: > 100 µM; GI50 [33]: > 100 µM; TGI [33]: > 100 µM; GI50 [34]: > 100 µM; TGI [34]: > 100 µM; GI50 [35]: > 100 µM; TGI [35]: > 100 µM; GI50 [36]: > 100 µM; TGI [36]: > 100 µM; GI50 [37]: > 100 µM; TGI [37]: > 100 µM; GI50 [38]: > 100 µM; TGI [38]: > 100 µM; GI50 [39]: > 100 µM; TGI [39]: > 100 µM; GI50 [40]: > 100 µM; TGI [40]: > 100 µM; GI50 [41]: > 69.7 µM; TGI [41]: > 100 µM; GI50 [42]: > 100 µM; TGI [42]: > 100 µM; GI50 [43]: > 100 µM; TGI [43]: > 100 µM; GI50 [44]: > 100 µM; TGI [44]: > 100 µM; GI50 [45]: > 100 µM; TGI [45]: > 100 µM; GI50 [46]: > 100 µM; TGI [46]: > 100 µM; GI50 [47]: > 100 µM; TGI [47]: > 100 µM
